Measured values from ChEMBL document CHEMBL1129164, “Molecular design, chemical synthesis and biological studies of novel enediynes related to dynemicin a” (Bioorg Med Chem Lett, 1996).
Values after ≈ are worked out from the molar mass of the structure shown.

Assays:
Format in all cases: functional, cell-based
COLO 205 = assay: In vitro growth inhibition of COLO 205 (colon cell line) human tumor cells.
HepG2 = assay: In vitro growth inhibition of Hep G2 ([…] line) human tumor cells.
MOLT-4 = assay: In vitro growth inhibition of Molt-4 (leukemia cell line) human tumor cells.
SK-BR-3 = assay: In vitro growth inhibition of SK-BR-3 (breast cancer cell line) human tumor cells.

| IC50 (COLO 205) | IC50 (HepG2) | IC50 (MOLT-4) | IC50 (SK-BR-3) | SMILES |
| --- | --- | --- | --- | --- |
| 26 µg/mL (≈ 58 µM) | 9.01 µg/mL (≈ 20.1 µM) | 5.5 µg/mL (≈ 12.3 µM) | 19.5 µg/mL (≈ 43.5 µM) | CCOC(=O)N1c2ccccc2[C@@H]2O[C@@H]2C1C#C/C=C\C#CCS(=O)(=O)c1ccccc1 (stereo partly drawn) |
| 49.7 µg/mL (≈ 107 µM) | 57.8 µg/mL (≈ 124 µM) | 10.2 µg/mL (≈ 21.9 µM) | 46.7 µg/mL (≈ 100 µM) | CCOC(=O)N1c2ccccc2[C@@H](O)[C@H](O)C1C#C/C=C\C#CCS(=O)(=O)c1ccccc1 (stereo partly drawn) |
| 53 µg/mL (≈ 119 µM) | 50.2 µg/mL (≈ 112 µM) | 5.63 µg/mL (≈ 12.6 µM) | 43.9 µg/mL (≈ 98 µM) | CCOC(=O)N1c2ccccc2C(=O)CC1C#C/C=C\C#CCS(=O)(=O)c1ccccc1 (stereo not drawn) |

The remaining lines, values behind:

| SMILES | IC50 (COLO 205) | IC50 (HepG2) | IC50 (MOLT-4) | IC50 (SK-BR-3) |
| --- | --- | --- | --- | --- |
| CCOC(=O)N1c2ccccc2[C@@H]2O[C@@H]2C1C#Cc1ccccc1C#CCS(=O)(=O)c1ccccc1 (stereo partly drawn) | 9.59 µg/mL (≈ 19.3 µM) | 8.91 µg/mL (≈ 17.9 µM) | 4.64 µg/mL (≈ 9.33 µM) | 9.23 µg/mL (≈ 18.6 µM) |
| CCOC(=O)N1c2ccccc2[C@@H](S(=O)(=O)c2ccccc2)[C@H](O)C1C#Cc1ccccc1C#CCS(=O)(=O)c1ccccc1 (stereo partly drawn) | 5.33 µg/mL (≈ 8.33 µM) | 3.75 µg/mL (≈ 5.86 µM) | 0.73 µg/mL (≈ 1.14 µM) | 6.26 µg/mL (≈ 9.79 µM) |
| C#CC1[C@H]2O[C@H]2c2ccccc2N1C(=O)OCC (stereo partly drawn) | > 100 µg/mL | > 100 µg/mL | 66.5 µg/mL (≈ 274 µM) | > 100 µg/mL |
| CCOC(=O)N1c2ccccc2C(=O)CC1C#Cc1ccccc1C#CCS(=O)(=O)c1ccccc1 (stereo not drawn) | 50.1 µg/mL (≈ 101 µM) | 70 µg/mL (≈ 141 µM) | 7.26 µg/mL (≈ 14.6 µM) | 53.6 µg/mL (≈ 108 µM) |
